Data on 4 molecules can be found in ChEMBL document CHEMBL3745672, “Novel compounds reducing IRS-1 serine phosphorylation for treatment of diabetes” (Bioorg Med Chem Lett, 2016).

For assay [1], the target named is RAC-alpha serine/threonine-protein kinase (Homo sapiens) (UniProt P31749). The assay can be described thus: Inhibition of AKT1 (unknown origin) at 10 uM.
Assay [2] has as its target Serine/threonine-protein kinase PLK3 (Homo sapiens) (UniProt Q9H4B4). The assay can be described thus: Inhibition of PLK3 (unknown origin) at 10 uM.
Assay [3] has as its target Serine/threonine-protein kinase pim-1 (Homo sapiens) (UniProt P11309). The assay can be described thus: Inhibition of PIM1 (unknown origin) at 10 uM.
The target in assay [4] is Platelet-derived growth factor receptor beta (Homo sapiens) (UniProt P09619). The assay can be described thus: Inhibition of PDGFRbeta (unknown origin) at 10 uM.
Assay [5] addresses T1, Aurora kinase A (Homo sapiens) (UniProt O14965).
T1 sequence (whole entry): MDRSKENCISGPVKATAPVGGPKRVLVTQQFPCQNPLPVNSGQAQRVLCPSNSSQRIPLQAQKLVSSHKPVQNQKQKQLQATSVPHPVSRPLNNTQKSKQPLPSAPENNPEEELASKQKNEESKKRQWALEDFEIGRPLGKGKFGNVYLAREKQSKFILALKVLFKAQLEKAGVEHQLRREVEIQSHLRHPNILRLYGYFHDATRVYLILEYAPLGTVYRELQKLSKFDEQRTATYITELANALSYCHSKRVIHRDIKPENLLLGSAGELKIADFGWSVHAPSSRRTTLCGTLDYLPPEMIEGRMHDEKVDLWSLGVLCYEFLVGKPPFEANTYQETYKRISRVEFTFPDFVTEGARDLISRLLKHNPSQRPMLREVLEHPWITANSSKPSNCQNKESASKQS
The assay can be described thus: Inhibition of AurA (unknown origin) at 10 uM.

In assay [6] the target is T2, Mitogen-activated protein kinase 8 (Homo sapiens, UniProt P45983). The assay can be described thus: Inhibition of JNK1 (unknown origin) expressed in HEK293 cells assessed as anisomycin-induced JNK phosphorylation at 10 uM incubated for 30 mins by Western blot analysis relative to anisomycin. It counts as cell-based. More on the design: scale not given: the % may be the effect or the level left. (In general: A western blot detects proteins with antibodies after separation by electrophoresis.)

Assay [7] concerns the target T2, Mitogen-activated protein kinase 8. The assay can be described thus: Inhibition of JNK1 (unknown origin).
In assay [8] the target is Tyrosine-protein kinase SYK (Homo sapiens) (UniProt P43405). The assay can be described thus: Inhibition of SYK (unknown origin) at 10 uM.
Assay [9] addresses Receptor-type tyrosine-protein kinase FLT3 (Homo sapiens) (UniProt P36888). The assay can be described thus: Inhibition of FLT3 (unknown origin) at 10 uM.
Assay [10] deals with Tyrosine-protein kinase receptor UFO (Homo sapiens) (UniProt P30530). The assay can be described thus: Inhibition of AXL (unknown origin) at 10 uM.
Assay [11] addresses Protein kinase C alpha type (Homo sapiens) (UniProt P17252). The assay can be described thus: Inhibition of PKCalpha (unknown origin) at 10 uM.
In assay [12] the target is Death-associated protein kinase 3 (Homo sapiens) (UniProt O43293). The assay can be described thus: Inhibition of DAPK3 (unknown origin) at 10 uM.
The target of assay [13] is T2, Mitogen-activated protein kinase 8. The assay can be described thus: Inhibition of JNK1 (unknown origin) at 10 uM.
In assay [14] the target is Proto-oncogene tyrosine-protein kinase receptor Ret (Homo sapiens) (UniProt P07949). The assay can be described thus: Inhibition of RET (unknown origin) at 10 uM.
For assay [15], the target named is T2, Mitogen-activated protein kinase 8. The assay can be described thus: Inhibition of JNK1 (unknown origin) expressed in HEK293 cells assessed as anisomycin-induced IRS-1(Ser307) phosphorylation at 10 uM incubated for 30 mins by Western blot analysis relative to anisomycin. It counts as cell-based. More on the design: scale not given: the % may be the effect or the level left.

The target of assay [16] is Serine/threonine-protein kinase PAK 4 (Homo sapiens) (UniProt O96013). The assay can be described thus: Inhibition of PAK4 (unknown origin) at 10 uM.
Assay [17] deals with T2, Mitogen-activated protein kinase 8. The assay can be described thus: Inhibition of JNK1 (unknown origin) expressed in HEK293 cells assessed as anisomycin-induced c-Jun phosphorylation at 10 uM incubated for 30 mins by Western blot analysis relative to anisomycin. It counts as cell-based. More on the design: scale not given: the % may be the effect or the level left.
Assay [18] addresses T3, Tyrosine-protein kinase JAK3 (Homo sapiens) (UniProt P52333).
T3 sequence (whole entry): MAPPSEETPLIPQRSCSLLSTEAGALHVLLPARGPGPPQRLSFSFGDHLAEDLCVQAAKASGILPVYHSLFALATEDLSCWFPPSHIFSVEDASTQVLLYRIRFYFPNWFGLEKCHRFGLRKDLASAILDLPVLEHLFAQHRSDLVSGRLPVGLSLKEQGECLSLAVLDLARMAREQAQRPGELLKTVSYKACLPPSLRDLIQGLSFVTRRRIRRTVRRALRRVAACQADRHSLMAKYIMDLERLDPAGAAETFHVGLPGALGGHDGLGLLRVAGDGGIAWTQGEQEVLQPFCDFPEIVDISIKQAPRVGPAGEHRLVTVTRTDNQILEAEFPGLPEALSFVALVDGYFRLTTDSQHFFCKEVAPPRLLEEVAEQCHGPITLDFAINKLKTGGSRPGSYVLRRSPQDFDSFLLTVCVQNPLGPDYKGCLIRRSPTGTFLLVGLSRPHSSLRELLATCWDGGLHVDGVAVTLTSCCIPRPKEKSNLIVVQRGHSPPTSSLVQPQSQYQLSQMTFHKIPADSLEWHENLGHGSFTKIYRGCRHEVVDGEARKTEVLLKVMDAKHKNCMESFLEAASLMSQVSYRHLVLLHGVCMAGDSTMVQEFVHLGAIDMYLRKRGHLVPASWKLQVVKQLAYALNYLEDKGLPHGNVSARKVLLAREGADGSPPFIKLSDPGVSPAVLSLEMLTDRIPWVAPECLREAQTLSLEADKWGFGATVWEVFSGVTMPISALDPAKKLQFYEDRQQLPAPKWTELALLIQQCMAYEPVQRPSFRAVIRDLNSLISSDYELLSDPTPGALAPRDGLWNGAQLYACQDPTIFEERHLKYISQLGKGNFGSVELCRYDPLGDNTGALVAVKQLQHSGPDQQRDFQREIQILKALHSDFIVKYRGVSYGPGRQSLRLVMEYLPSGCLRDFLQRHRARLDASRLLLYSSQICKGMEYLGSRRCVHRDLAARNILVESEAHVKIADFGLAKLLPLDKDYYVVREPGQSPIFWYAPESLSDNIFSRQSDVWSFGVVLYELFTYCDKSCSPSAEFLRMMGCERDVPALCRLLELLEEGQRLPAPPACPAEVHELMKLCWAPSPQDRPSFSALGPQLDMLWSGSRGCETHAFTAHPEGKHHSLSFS
The assay can be described thus: Inhibition of JAK3 (unknown origin) at 10 uM.

Assay [19] has as its target Hepatocyte growth factor receptor (Homo sapiens) (UniProt P08581). The assay can be described thus: Inhibition of cMET (unknown origin) at 10 uM.
Assay [20] addresses Rho-associated protein kinase 2 (Homo sapiens) (UniProt O75116). The assay can be described thus: Inhibition of ROCK2 (unknown origin) at 10 uM.
Assay [21] addresses Insulin receptor (Homo sapiens) (UniProt P06213). The assay can be described thus: Inhibition of INSR (unknown origin) at 10 uM.
In assay [22] the target is Serine/threonine-protein kinase PAK 1 (Homo sapiens) (UniProt Q13153). The assay can be described thus: Inhibition of PAK1 (unknown origin) at 10 uM.
The target in assay [23] is CDK2/Cyclin A2 (Homo sapiens) (UniProt P24941+P20248). The assay can be described thus: Inhibition of CDK2/CyclinA (unknown origin) at 10 uM. The assay is classed as protein-complex assay.

Serine/threonine-protein kinase PLK3 (Homo sapiens), sequence (Q9H4B4 whole entry, looked up): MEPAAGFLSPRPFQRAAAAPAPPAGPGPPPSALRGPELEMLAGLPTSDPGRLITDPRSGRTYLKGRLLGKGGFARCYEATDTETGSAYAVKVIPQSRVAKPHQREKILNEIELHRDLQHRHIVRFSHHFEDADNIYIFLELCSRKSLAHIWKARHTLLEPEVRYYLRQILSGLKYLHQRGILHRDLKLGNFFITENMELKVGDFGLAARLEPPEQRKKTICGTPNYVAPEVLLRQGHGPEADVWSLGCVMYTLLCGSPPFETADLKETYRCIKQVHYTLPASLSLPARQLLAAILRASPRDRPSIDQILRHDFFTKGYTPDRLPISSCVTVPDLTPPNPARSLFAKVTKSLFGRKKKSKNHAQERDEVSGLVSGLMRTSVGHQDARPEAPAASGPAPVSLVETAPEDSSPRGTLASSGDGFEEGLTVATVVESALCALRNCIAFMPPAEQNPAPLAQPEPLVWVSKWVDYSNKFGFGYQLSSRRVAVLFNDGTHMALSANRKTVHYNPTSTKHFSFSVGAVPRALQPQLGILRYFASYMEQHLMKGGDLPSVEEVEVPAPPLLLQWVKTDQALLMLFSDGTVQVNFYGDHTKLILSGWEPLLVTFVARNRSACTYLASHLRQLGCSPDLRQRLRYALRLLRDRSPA
Serine/threonine-protein kinase PAK 1 (Homo sapiens), sequence (Q13153 whole entry): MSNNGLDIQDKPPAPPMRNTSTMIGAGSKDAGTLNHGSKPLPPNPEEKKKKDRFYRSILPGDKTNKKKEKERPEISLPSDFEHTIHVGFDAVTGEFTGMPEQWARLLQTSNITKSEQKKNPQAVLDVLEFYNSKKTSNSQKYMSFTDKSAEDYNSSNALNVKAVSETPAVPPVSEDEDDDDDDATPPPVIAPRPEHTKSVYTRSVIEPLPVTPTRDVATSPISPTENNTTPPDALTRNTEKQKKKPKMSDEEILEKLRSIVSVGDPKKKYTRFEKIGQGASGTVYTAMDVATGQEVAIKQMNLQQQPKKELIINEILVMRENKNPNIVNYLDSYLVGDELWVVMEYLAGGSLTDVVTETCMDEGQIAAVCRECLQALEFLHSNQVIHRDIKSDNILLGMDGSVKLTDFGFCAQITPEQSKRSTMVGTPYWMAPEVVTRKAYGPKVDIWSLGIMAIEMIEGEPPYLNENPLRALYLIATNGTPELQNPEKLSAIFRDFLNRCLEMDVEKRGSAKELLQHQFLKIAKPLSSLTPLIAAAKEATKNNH
Proto-oncogene tyrosine-protein kinase receptor Ret (Homo sapiens), sequence (P07949 whole entry): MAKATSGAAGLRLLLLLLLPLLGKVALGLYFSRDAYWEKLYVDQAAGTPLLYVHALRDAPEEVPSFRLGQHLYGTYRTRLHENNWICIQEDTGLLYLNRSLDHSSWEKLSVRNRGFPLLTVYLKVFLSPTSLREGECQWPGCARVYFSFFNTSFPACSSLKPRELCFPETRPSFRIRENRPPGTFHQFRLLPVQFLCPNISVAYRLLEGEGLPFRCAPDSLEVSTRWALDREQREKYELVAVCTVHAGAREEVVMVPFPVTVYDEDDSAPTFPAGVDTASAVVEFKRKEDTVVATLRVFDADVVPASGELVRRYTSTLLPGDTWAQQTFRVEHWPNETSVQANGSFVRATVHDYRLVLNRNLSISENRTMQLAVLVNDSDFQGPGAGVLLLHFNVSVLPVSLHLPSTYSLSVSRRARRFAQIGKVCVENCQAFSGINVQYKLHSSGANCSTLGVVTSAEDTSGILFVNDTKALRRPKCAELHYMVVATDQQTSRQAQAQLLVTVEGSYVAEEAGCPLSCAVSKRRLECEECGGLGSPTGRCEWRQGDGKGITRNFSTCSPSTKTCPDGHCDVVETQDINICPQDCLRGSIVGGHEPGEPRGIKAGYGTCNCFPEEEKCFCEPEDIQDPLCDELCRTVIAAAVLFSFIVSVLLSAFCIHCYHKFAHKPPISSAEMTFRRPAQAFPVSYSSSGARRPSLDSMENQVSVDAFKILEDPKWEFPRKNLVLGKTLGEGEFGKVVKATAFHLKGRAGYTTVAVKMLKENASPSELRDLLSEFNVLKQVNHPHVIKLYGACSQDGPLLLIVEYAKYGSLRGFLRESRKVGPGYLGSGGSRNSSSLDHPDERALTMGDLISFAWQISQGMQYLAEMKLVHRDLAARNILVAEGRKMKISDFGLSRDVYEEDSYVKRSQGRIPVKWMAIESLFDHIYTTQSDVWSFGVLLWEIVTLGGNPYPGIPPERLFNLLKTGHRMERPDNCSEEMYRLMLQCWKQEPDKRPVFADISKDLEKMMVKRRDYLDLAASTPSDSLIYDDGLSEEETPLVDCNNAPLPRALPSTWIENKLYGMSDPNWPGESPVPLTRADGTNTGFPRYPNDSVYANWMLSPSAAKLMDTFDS
Serine/threonine-protein kinase pim-1 (Homo sapiens), sequence (P11309 whole entry, looked up): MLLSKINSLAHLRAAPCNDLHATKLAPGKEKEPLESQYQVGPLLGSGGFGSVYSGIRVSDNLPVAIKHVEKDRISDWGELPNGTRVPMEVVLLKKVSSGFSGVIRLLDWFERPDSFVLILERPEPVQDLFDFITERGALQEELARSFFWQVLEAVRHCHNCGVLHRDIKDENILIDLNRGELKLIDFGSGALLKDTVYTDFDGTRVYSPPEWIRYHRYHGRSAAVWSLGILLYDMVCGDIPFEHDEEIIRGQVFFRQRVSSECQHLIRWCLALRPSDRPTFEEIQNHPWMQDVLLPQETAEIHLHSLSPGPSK
RAC-alpha serine/threonine-protein kinase (Homo sapiens), sequence (P31749 whole entry): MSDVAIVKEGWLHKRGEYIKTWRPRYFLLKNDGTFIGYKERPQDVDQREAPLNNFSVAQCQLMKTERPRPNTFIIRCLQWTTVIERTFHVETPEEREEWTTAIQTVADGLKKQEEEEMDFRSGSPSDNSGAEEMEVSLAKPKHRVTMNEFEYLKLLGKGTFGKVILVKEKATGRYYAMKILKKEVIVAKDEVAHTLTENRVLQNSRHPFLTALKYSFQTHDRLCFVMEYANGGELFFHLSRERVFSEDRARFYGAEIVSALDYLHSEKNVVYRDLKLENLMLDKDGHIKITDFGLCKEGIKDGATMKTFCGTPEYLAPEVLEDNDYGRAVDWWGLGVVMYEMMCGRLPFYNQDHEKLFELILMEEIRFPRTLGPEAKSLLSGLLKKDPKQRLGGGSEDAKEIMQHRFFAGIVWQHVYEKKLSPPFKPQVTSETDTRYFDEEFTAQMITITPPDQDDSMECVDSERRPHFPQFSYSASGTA
T2 sequence (P45983 whole entry): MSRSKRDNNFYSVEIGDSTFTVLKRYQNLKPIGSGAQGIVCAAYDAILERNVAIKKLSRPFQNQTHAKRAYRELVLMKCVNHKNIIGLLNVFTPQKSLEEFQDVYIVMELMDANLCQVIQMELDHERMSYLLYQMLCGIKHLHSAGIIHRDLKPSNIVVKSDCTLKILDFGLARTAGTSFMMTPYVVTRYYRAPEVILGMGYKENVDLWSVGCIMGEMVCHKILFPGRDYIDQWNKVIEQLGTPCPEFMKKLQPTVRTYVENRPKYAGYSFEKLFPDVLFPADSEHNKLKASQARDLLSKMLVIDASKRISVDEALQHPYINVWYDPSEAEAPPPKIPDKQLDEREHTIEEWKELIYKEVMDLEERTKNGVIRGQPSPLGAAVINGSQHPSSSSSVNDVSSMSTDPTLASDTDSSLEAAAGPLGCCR
Serine/threonine-protein kinase PAK 4 (Homo sapiens), sequence (O96013 whole entry, looked up): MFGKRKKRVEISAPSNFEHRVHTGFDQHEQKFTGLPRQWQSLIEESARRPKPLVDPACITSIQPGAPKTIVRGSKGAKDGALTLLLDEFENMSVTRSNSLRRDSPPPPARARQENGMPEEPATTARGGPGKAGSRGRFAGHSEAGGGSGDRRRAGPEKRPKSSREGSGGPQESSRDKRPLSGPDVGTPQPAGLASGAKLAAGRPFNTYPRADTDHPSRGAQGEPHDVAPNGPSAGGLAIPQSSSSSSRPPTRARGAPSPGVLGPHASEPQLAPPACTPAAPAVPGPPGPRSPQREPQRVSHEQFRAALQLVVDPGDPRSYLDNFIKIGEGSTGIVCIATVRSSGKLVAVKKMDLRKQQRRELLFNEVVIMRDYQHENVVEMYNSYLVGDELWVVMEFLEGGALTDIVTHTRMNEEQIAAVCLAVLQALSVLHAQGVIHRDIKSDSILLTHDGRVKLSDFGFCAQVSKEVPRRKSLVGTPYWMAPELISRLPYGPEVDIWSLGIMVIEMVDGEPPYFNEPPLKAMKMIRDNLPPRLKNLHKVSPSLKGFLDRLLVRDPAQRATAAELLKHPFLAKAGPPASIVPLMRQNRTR

With `Cn1c(=O)c(Oc2ccc(F)cc2F)cc2cnc(Nc3ccc(N4CCCCC4)cc3)nc21`, the inhibition in assay [1] came out at 9%; in assay [2], 29%; in assay [3] it was 24%; in assay [4], 39%; in [5], 14%; in assay [8], 8%. The inhibition in assay [9] amounted to 8%; in [10] it was 6%; in assay [11], 14%; in assay [12], 0%; in assay [13] it was 13%; in assay [14] it was 46%. Moreover, the inhibition was 29% in assay [16]; 10% in [18]; 8% in assay [19]; 5% in assay [20]; 5% in assay [21]; 3% in assay [22]. For the same molecule, the inhibition in assay [23] worked out at 10%. Besides, the Activity in assay [6] was found to be 149%; in assay [15], 84%; in assay [17] it was 131%. In [7], this molecule returned a half-inhibitory concentration (IC50) above 23 µM.
With `CN(C)CCNc1ncc2cc(Oc3ccc(F)cc3F)c(=O)n(C)c2n1`, the inhibition was found to be 5% in assay [1]; 0% in assay [2]; 1% in assay [3]; 5% in assay [4]; 7% in assay [5]; 3% in assay [8]. Besides, the inhibition was 4% in [9]; 0% in assay [10]; 0% in [11]; 0% in [12]; 3% in assay [13]; 1% in [14]. Also, the inhibition was 20% in assay [16]; 0% in assay [18]; 0% in assay [19]; 2% in assay [20]; 0% in [21]; 0% in [22]. The same molecule had an inhibition in [23] of 13%. Further, the Activity in assay [6] was determined as 104%; in assay [15] it was 104%; in assay [17], 110%. Also, the IC50 in assay [7] was above 23 µM.
As for `Cn1c(=O)c(Oc2c(Cl)cccc2Cl)cc2cnc(NC3CCOCC3)nc21`, the inhibition came out at 3% in assay [1]; 0% in assay [2]; 0% in assay [3]; 0% in assay [4]; 3% in [5]; 8% in [8]. The inhibition in [9] turned out to be 3%; in assay [10] it was 0%; in assay [11], 5%; in assay [12], 0%; in assay [13] it was 67%; in [14] it was 2%. Moreover, the inhibition in assay [16] stood at 14%; in assay [18], 0%; in assay [19], 1%; in assay [20] it was 4%; in assay [21], 2%; in assay [22], 0%. The inhibition in assay [23] was 3%. Moreover, the Activity in assay [6] amounted to 55.2%; in assay [15], 8.05%; in assay [17] it was 68%. For the same molecule, the IC50 in assay [7] was found to be 2.48 µM.
As to `CN1CCN(CCCNc2ncc3cc(Oc4ccc(F)cc4F)c(=O)n(C)c3n2)CC1`, the inhibition was found to be 0% in assay [1]; 0% in [2]; 0% in [3]; 29% in assay [4]; 6% in assay [5]; 0% in assay [8]. For the same molecule, the inhibition came out at 0% in assay [9]; 4% in assay [10]; 13% in assay [11]; 12% in assay [12]; 20% in assay [13]; 24% in assay [14]. Moreover, the inhibition was found to be 2% in assay [16]; 0% in assay [18]; 0% in [19]; 3% in assay [20]; 2% in assay [21]; 0% in assay [22]. This molecule had an inhibition in assay [23] of 3%. The Activity in [6] is 153%; in assay [15] it was 0%; in assay [17], 137%. In addition, the IC50 in assay [7] stood at 19.1 µM.

Usually inhibition stands for the share of the control response that was lost under treatment. One may read the IC50 as the concentration needed to halve the response being measured.
